Molecules are shown by their SMILES.

These results are taken from patent publication EP2321300B1, “CHLOROPHYLL CATABOLITES” (Universität Innsbruck, priority 2008, dated 2010).

This assay has as its system Autoxidation von Linolensäure. The assay is described as follows: Antioxidant test: inhibition of hydroperoxide formation in radical-chain autoxidation of linoleic acid (after Stocker et al.), AIBN as radical starter, UV/Vis at 234 nm or HPLC. In kind it is biochemical. To be noted: for IC50: Autoxidation of Linolensäure in the presence of air, b23 room temperature (37°C, 0,15 M Linolsäure, 2 mM AIBN, 6 % (v/v) Methanol), read-out: Konzentration c0,5 (Rate der Peroxidbildung auf die Hälfte reduziert). The text has this: Stocker et al. verwendeten zur Quantifizierung der antioxidativen Wirkung des Hämabbauproduktes Bilirubin ein einfaches Testsystem. Die essentielle Fettsäure Linolsäure, eine zweifach ungesättigte Fettsäure, ist sehr empfindlich gegenüber einer Oxidation durch freie Radikale. Derartige Oxidationen können in Form von Kettenreaktionen z.B. in Zellmembranen großflächige Schäden herbeiführen. In vitro wurde dieser "oxidative Stress" durch den Einsatz einer Azoverbindung (Radikalstarter) simuliert. Derartige Azoverbindungen bilden ständig, abhängig von der Temperatur durch Abspaltung von Stickstoff (N2) Kohlenstoffradikale, die wiederum mit den ungesättigten Bindungen der Fettsäuren reagieren können. Es bilden sich Fettsäureradikale die ihrerseits wiederum mit Sauerstoff reagieren. Das führt zur Bildung von Fettsäurehydroperoxiden, die wegen ihrer besonderen Absorptionseigenschaften in UV-Bereich (234 nm) spektroskopisch nachweisbar sind. Abhängig von der Konzentration des Radikalbildners steigt also mit der Zeit die Anzahl der Fettsäurehydroperoxidmoleküle an. Setzt man einen antioxidativ wirksamen Stoff zu, können Radikale abgefangen werden, und die Bildung der Hydroperoxide wird verlangsamt.
Das Ergebnis dieser Untersuchungen zeigt die Figur 8, in der die zeitliche Abhängigkeit der Zunahme oxidierter Linolsäure bei unterschiedlichen Konzentrationen der Antioxidantien Bilirubin bzw. NCC-1 aufgetragen ist.
Die Aktivität des natürlichen und weniger polaren Cj-YCC-2 als Antioxidans wurde in Lösung mittels Standardexperimenten, die unter anderem auch in der WO 2007/030848 beschrieben sind, getestet unter Verwendung der Autoxidation von Linolensäure in der Anwesenheit von Luft und bei Raumtemperatur. Das gelbe Tetrapyrrol Cj-YCC-2 inhibierte die Erscheinung von Hydroperoxiden aus einer Radikal-Ketten-Autoxidation von Linolensäure in der Anwesenheit von Luft (siehe Fig. 8). […]

Regarding `C=CC1=C(C)C(Cc2[nH]c(C3c4[nH]c(Cc5[nH]c(C=O)c(C)c5CCO)c(C)c4C(=O)C3C(=O)OC)c(CCC(=O)O)c2C)NC1=O` (stereo not drawn) [Cj-NCC-1, reference compound], the IC50 was approximately 100 µM.

For `C=CC1=C(C)/C(=C\c2[nH]c([C@@H]3c4[nH]c(Cc5[nH]c(C=O)c(C)c5CCO)c(C)c4C(=O)[C@H]3C(=O)OC)c(CCC(=O)O)c2C)NC1=O` [Cj-YCC-1, (13^2S,15R,20E) - 3',3^2-Didehydro - 4,5,10,15 - (22,24H) - hexahydro - 13^2 - methoxycarbonyl - 4,5 - seco - 4,5 - dioxo - phytoporphyrinat], the IC50 is approximately 10 µM.

`C=CC1=C(C)/C(=C/c2[nH]c([C@@H]3c4[nH]c(Cc5[nH]c(C=O)c(C)c5CCO)c(C)c4C(=O)[C@H]3C(=O)OC)c(CCC(=O)O)c2C)NC1=O` [Cj-YCC-2, (13^2S,15R,20Z) - 3^1,3^2-Didehydro - 4,5,10,15 - (22,24H) - hexahydro - 13^2 - methoxycarbonyl - 4,5 - seco - 4,5 - dioxo - phytoporphyrinat]: under “in the presence of air, Fig. 8”, the “Erscheinung von Hydroperoxiden aus einer Radikal-Ketten-Autoxidation von Linolensäure” value is given as “inhibierte”.
